The record followed here is patent EP0437367A2, “Compositions and methods for inhibiting osteoclast cellular adhesion to bone” (MERCK & CO. INC., priority 1990, dated 1991).

Bridge positions count the residues as written; N and C are the ends.

Format in all cases: cell-based
In experiment [1] the test system is chicken osteoclasts. The experiment can be described thus: attachment assay of 3H proline labelled bone particles to chicken osteoclasts. The settings on record: chicken osteoclasts after 5-6 days culture. As to the method:
Attachment of ³H proline labelled bone particles (20- 53 um) was followed with time by assaying free and bound pools. Chicken osteoclasts in 48 well plates were given 100 ug of labelled bone particles. Free was defined as particles liberated by 3x swirling of cultures with media. Bound was defined as particles liberated after 6 hr incubation and 2x swirling in 1N NaOH. All cells were completely disrupted by the latter treatment. Samples were then ashed in a Packard 306 oxidizer (Camberra Inst., NJ) and counted (LKB).
Free end bound particles of bone labelled with [³H] proline were assayed as a function of incubation time with chicken osteoclasts after 5-6 days culture at 37°C. […] At this echistatin concentration, resorption was inhibited by 40% with little effect on osteoclast morphology.

In experiment [2] the test system is chicken osteoclasts. The experiment can be described thus: resorption by chicken osteoclasts, release of 3H proline from labelled bone particles. As to the method:
Osteoclasts from the long bones of egg laying hens were isolated by the methods of Zambonin Zallone et al. (1989) and Blair et al., J. Cell Biol. 102: 1164-1172 (1986). Medullary bone was harvested with scalpels from split femora and tibiae of laying hens (Dekalb XL) that were on a Ca deficient diet (5070C- 9, Purina Mills Inc., St. Louis) for 3-6 wks. After washing in PBS 4°C, the suspension was pressed through a 110 um nylon mesh and then osmotically shocked in 0.2% NaCl for 3 min 37°C to lyse red blood cells. The cells were collected at 350xg (5 min, 4°C), and osteoclasts were sedimented through 70% serum for 90 min at 4°C in 50 ml tubes (Fisher). The bottom 5 ml was then layered over a 3 step (1.073, 1.099, 1.143 g/cm³) Nycodenz gradient (Accurate, Ct) and spun at 350xg, 20 min, 4°C. […] Cells excluding trypan blue (Gibco) were immediately counted on a hemocytometer (Fisher) and aliquoted at 1-2x 10⁶ total cells (not counting red blood cells)/ well of 48 well plates (Costar), no. […]
Therefore, for 1 day resorption experiments, unlabelled bone particles (50 ug, <20 um fraction) were first added to chicken cells at day 3 followed by labelled bone (100 ug, 20- 53 um) plus test compounds (Merck) at day 5. Alternatively, labelled bone (100 ug) plus compounds were added at day 3 and the media counted at day 6 with a LKB liquid scintillation counter. […]

Experiment [3] concerns the target T1, rat osteoclasts (Rattus norvegicus, UniProt F1LZX9+Q8R2H2).
T1 sequence (F1LZX9 31-1043): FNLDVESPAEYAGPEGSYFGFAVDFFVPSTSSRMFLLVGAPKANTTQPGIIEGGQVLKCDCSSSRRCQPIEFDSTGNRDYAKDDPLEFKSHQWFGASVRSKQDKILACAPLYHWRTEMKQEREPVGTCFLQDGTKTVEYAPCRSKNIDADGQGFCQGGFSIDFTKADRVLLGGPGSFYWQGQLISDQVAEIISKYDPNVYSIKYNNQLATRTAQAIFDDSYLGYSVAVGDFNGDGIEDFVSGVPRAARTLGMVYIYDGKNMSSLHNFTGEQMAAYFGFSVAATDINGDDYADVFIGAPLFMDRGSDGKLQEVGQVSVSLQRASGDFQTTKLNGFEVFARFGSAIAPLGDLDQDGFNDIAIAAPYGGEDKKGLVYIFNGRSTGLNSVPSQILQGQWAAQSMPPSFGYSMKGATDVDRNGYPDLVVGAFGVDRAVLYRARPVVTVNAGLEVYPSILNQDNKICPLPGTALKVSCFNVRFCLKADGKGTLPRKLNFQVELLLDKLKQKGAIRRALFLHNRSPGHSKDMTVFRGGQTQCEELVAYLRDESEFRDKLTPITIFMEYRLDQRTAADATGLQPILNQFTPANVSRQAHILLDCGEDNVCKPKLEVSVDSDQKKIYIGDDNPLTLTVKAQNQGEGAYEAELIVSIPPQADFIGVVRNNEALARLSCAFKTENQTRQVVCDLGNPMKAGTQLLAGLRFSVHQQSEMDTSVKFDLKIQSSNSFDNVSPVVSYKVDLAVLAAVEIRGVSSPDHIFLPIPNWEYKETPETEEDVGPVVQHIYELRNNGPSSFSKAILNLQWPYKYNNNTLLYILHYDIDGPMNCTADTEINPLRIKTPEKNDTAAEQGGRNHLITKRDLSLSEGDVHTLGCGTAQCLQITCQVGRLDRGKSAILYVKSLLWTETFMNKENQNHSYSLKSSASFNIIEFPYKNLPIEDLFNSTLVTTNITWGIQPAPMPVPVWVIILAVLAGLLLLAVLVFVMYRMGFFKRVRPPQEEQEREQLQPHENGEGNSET
T1 sequence (Q8R2H2 26-787): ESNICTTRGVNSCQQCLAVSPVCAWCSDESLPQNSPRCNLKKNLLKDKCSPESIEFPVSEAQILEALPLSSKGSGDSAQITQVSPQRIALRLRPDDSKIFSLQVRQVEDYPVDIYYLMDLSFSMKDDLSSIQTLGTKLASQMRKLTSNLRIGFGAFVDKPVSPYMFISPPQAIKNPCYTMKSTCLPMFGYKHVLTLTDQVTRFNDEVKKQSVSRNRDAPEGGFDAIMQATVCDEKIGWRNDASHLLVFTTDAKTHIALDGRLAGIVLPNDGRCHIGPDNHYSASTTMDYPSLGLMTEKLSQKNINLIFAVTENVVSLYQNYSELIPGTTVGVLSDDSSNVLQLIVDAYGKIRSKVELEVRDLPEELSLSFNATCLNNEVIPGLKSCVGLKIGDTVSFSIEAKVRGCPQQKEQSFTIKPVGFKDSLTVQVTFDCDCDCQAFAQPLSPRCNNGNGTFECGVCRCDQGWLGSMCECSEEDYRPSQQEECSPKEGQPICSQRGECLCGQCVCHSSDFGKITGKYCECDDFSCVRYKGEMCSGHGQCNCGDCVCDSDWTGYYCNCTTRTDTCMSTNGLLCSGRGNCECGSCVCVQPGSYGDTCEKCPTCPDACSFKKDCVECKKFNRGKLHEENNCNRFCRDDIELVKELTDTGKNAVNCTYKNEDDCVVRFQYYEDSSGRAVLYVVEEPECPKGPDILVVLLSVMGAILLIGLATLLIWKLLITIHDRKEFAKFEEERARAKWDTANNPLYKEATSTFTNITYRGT
Put plainly: bone slice resorption assay with rat osteoclasts. The note with it: range 1pM- 10 uM, P>0.07, Graph 3a. As to the method: Osteoclasts, large multinucleated cells up to 400 microns in diameter and with abundant acidophilic cytoplasm which function in the absorption and removal of osseous tissue, use the integrin receptor to bind bone as part of the mechanism of bone resorption. […] Based on the release of [³H] proline from labelled bone particles, the IC₅₀ of chicken osteoclast resorption was 100 nM. By comparison, the RGDS synthetic tetrapeptide inhibited rat or chicken resorption with an IC₅₀ of 0.1 mM. Attachment experiments with chicken osteoclasts and bone particles labelled with [³H] proline confirmed that the mechanism of action of echistatin is to inhibit osteoclast binding to bone. Echistatin induces the retraction of osteoclast lamellipodia in a manner reminiscent of 1 nM calcitonin or 1 uM prostaglandin E₂.
Osteoclasts were isolated from the long bones of 1-3 day old rats as described by Chambers et al., J. Cell Sci. 66: 383-399 (1984). […]
Resorption of rat and some chicken osteoclasts was measured by using bone slices (4.4 x 4.4 x 0.2 mm) from the diaphysis of bovine femur (Isomet, Buehler Ltd., Lake Bluff, IL) which were cut with a low speed diamond saw as described by Arnett and Dempster, 1986. […] Resorption pits were quantitated by reflected light microscopy with crossed polarizers and rotatable lambda/4 plate (Sato and Grasser, J. Bone Min. Res. in press).

The target of experiment [4] is T1, rat osteoclasts. The experiment can be described thus: retraction of lamellipodia of rat osteoclasts. The text has this:
Osteoclasts were isolated from the long bones of 1-3 day old rats as described by Chambers et al., J. Cell Sci. 66: 383-399 (1984). Femora, tibiae and humera were dissected clean of soft tissue, split and scrapped with scalpels into 199 media pH 7-7.2 + 10% heat inactivated fetal calf serum + 100 U/ml antibiotics (penicillin G, steptomycin, amphotericin B, Gibco, New York). After gentle pipetting 60x with a wide bore pipette, the cell suspension was passed through a 110 um nylon mesh (Spectra) and aliquoted onto plastic dishes (Costar, Cambridge, MA), No. 1 coverslips (Corning, New York), glass cuvettes (Herminus) or bone slices (Arnett and Dempster, Endocrinology 120: 602-608 (1987)). All experiments with rat osteoclast cultures were conducted within the first 24 hr after isolation.
Rat or chicken osteoclasts were incubated with different concentrations of RGDS, echistatin and Ala²⁴ echistatin. All of these peptides induced morphological changes but rat osteoclasts 1 day after isolation on glass retracted lamellipodia at 10⁵x lower concentrations of echistatin (4.3 nM) compared to RGDS peptide. […] At these concentrations, extension/retraction and ruffling motility of the lamellipodia increased. […]

With Ala²⁴ echistatin, the “kinetics of bone attachment to osteoclasts” value in experiment [1] (10 nM) is recorded as “no significant effect”. The “effects on the resorption activity” value in experiment [2] (range 1pM- 10 uM, P>0.07, Graph 3a) is on record as “insignificant effects”; in experiment [3] it was “insignificant effects”. The “concentration at which lamellipodia retracted” value in experiment [4] (rat osteoclasts 1 day after isolation on glass) turned out to be 34 nM. Moreover, the “concentration at which lamellipodia did not retract” value in experiment [4] (rat osteoclasts, followed for up to 2 hr) came to 3.4 nM.

With `CCCCC[C@H](O)/C=C/[C@H]1[C@H](O)CC(=O)[C@@H]1C/C=C\CCCC(=O)O` [prostaglandin E₂], in experiment [2] (Gallus gallus, Osteoclast, 24 h, Graph 2a, 1 day resorption assay, read-out: IC₅₀ of resorption), the IC50 was determined as 1000 nM.

As to “H-ECESGPCCRNCKFLKEGTICKRARGDDMDDYCNGKTCDCPRNPHKGPAT-OH (disulfide 2-11, 7-32, 8-37, 20-39 (inferred)) [Synthetic Echistatin]”, the “attachment of bone particles to osteoclasts” value in experiment [1] (100 nM, up to 150 min) was “significantly inhibited”.
